Laboratory results reported in paper PMC7037393, “Synthesis, Structural, and Cytotoxic Properties of New Water-Soluble Copper(II) Complexes Based on 2,9-Dimethyl-1,10-Phenanthroline and Their One Derivative Containing 1,3,5-Triaza-7-Phosphaadamantane-7-Oxide” (Molecules, 2020).

Key:
[1] = target: T1, human apo-transferrin (apo-Tf) (Homo sapiens, UniProt P02787); test: Apo-transferrin interaction by fluorescence quenching (Stern-Volmer, binding, van't Hoff); settings: for Ka (association constant) / Ksv (Stern-Volmer quenching constant): PBS pH 7.40; for Kq (quenching rate constant): Kq = Ksv/τo, τo 2.5 ns; for H^0 (enthalpy change) / S^0 (entropy change): van't Hoff, 300 and 310 K
T1 construct: purchased Sigma-Aldrich
Excerpt: There are two mechanisms of fluorescence quenching, dynamic and static, that can be distinguished based on the temperature dependency. Dynamic quenching is due to collisions between quencher and fluorophore and static quenching results from the formation of the ground state complex between the molecules. A modified Stern–Volmer equation (Equation (3)) was used to calculate Stern–Volmer quenching constants (KSV) and quenching rate constants (Kq) of the interactions between apo-transferrin and copper complexes and to determine the mechanism of fluorescence quenching. Fo/(Fo − F) = 1/fa + 1/(faKsv[Q])(3)
In the equation, Fo and F are the fluorescence intensities of protein in the absence and presence of the quencher in the concentration (Q), respectively; KSV is the Stern–Volmer quenching constant; and fa is the fraction of the fluorophore accessible to the quencher.
Kq, the quenching rate constant of the biomolecules, is expressed as:Kq = Ksv/τo(4) where τo is the fluorescence lifetime of protein without quencher. For apo-transferrin, the τo value is 2.5 ns.
Association constants (Ka) and number of binding sites (n) were determined based on the Equation (5):log {(Fo − F)/F} = logKa + nlog[Q](5) where Fo and F are the fluorescence intensities in the absence and presence of the quencher in the concentration (Q), respectively, Ka is the binding constant, and n is the number of binding sites.
It is known that interactions between proteins and small molecules include hydrogen bonds, van der Waals, and electrostatic forces as well hydrophobic interactions. Based on thermodynamic parameters, we determined the type of interaction of copper complexes with apo-transferrin.
∆G^0 = ∆H^0 − T∆S^0(7) where Ka is the bimolecular binding constant at the corresponding temperature (T); R is the gas constant; and ΔH^0, ΔS^0, and ΔG^0 are enthalpy, entropy, and free energy change, respectively.
(§1) High purity apo-transferrin (≥ 98%, Sigma-Aldrich, Steinheim, North Rhine-Westphalia, Germany) was used without prior purification. The stock solutions of the complexes were prepared in demineralized water (1 and 2) or ethanol (3). The apo-Tf was dissolved in PBS (pH 7.40). The molar ratios of the final samples in PBS were (protein):(drug) = 1:0–1:16 in PBS with the protein concentration equal 2 μM. Samples were incubated at 300 and 310 K for 5 min. The apo-Tf concentration was determined using ε (280 nm) = 11.2 mM^−1 × cm^−1.
Emission fluorescence spectra were recorded on Jasco 8200 spectrofluorimeter (Tokyo, Japan) in the range of 300–500 nm using 1.0 cm quartz cells. The λex was set to 280 nm and the excitation and emission slit widths were set to 5 nm. All fluorescence intensities were corrected (according to Equation (8)) for the inner filter and dilution effects and the corrected values were used to determine the quenching mechanism and binding data. […] Therefore, all spectra are shown as different spectra of (apo-Tf-copper complex)−(copper complex). Fcorr = exp(A280 + Aem/2) × Fexp(8)

[2] = target: T1, human apo-transferrin (apo-Tf); test: Circular dichroism of apo-transferrin, alpha-helix content; format: binding; settings: free protein 19.80%
Procedure: Circular dichroism (CD) measurements in the far UV region were performed to determine the effect of copper complexes on the apo-transferrin secondary structure. A characteristic for α-helical structure of protein negative bands was visible in the CD spectrum at wavelengths of 210 and 220 nm (Figure 7) and were assigned n-π* transitions peptide bonds. […] The α-helix content the free protein was equal to 19.80%.
as §1, with “The molar ratios of the final samples in PBS were (protein):(drug) = 1:0–1:16 in PBS with the protein concentration equal 2 μM.” left out
Circular dichroism measurements were carried out on a Jasco J-715 spectropolarimeter (Tokyo, Japan) in the range of 190–250 nm using 0.1-cm cuvettes. The α-helical content of the protein was calculated from the Equations (9) and (10):(9) MRE209= ObservedCDmdeg/Cp· n· l ·10 (10) α−helix %= −MRE209−4000/33000−4000×100 where MRE is the mean residue ellipticity, Cp is the molar concentration of the protein, n the number of amino acid residues (679), and l is the path length (0.1 cm).

[3] = molar ratio apo-Tf:complex 1:20

T1 sequence (P02787 20-698): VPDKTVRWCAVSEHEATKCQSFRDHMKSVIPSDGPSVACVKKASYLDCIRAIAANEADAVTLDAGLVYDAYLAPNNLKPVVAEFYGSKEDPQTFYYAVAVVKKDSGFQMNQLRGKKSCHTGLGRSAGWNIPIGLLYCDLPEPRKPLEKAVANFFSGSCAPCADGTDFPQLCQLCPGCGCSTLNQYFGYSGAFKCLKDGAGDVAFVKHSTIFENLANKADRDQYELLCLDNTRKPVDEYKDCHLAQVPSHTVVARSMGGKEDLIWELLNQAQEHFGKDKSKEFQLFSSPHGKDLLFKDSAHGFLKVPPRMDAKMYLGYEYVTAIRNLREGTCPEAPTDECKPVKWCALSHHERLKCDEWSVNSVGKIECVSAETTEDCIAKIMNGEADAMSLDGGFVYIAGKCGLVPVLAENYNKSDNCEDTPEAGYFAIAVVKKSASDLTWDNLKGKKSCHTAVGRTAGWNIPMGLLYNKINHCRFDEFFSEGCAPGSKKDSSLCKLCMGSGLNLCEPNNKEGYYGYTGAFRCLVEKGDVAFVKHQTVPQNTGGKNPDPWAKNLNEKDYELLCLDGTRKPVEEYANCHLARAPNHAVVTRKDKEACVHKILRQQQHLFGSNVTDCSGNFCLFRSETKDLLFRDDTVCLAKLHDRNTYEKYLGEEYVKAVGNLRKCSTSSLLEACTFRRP

Structure (SMILES)	G^0 (free energy change) ([1]; 300 K) [kJ/mol]	Ksv values ([1]; 300 K) [M⁻¹]	n (number of binding sites) ([1]; 300 K)	Ka (association constant) ([1]; 300K)	Ksv (Stern-Volmer quenching constant) ([1]; 300K)	G^0 (free energy change) ([1]; 310 K) [kJ/mol]	Ksv values ([1]; 310 K) [M⁻¹]	n (number of binding sites) ([1]; 310 K)	Kq (quenching rate constant) ([1]; 310K)	Ka (association constant) ([1]; 310K)	Ksv (Stern-Volmer quenching constant) ([1]; 310K)	H^0 (enthalpy change) [1] [kJ/mol]	S^0 (entropy change) [1] [J mol^−1 K^−1]	α-helix content of apo-Tf upon binding ([2]; molar ratio apo-Tf:complex 1:10) [%]	α-helix content of apo-Tf upon binding [2, 3] [%]	Kq (quenching rate constant) ([1]; 300K)
CC#N.Cc1ccc2ccc3ccc(C)nc3c2n1.O=[N+]([O-])[O-].O=[N+]([O-])[O-].[Cu+2] [Complex 3, [Cu(NO3)2(dmphen)]∙MeCN]	-40.01	53700	1.40 ± 0.076	9.26 ± 0.37 ·10^6 [M^−1]	5.37 ± 0.023 ·10^4 [M^−1]	-41.37	35100	1.42 ± 0.068	1.40 ± 0.062 ·10^13 [M^−1s^−1]	9.38 ± 0.33 ·10^6 [M^−1]	3.51 ± 0.062 ·10^4 [M^−1]	962.34	136.57	17.05	8.16	–
Cc1ccc2ccc3ccc(C)nc3c2n1.F[P-](F)(F)(F)(F)F.O=P12CN3CN(CN(C3)C1)C2.O=[N+]([O-])[O-].[Cu+2] [Complex 1, [Cu(NO3)(PTA=O)(dmphen)][PF6]]	-34.53	–	1.26 ± 0.033	1.03 ± 0.16 ·10^6 [M^−1]	2.50 ± 0.011 ·10^4 [M^−1]	-35.17	–	1.24 ± 0.036	1.17 ± 0.029 ·10^13 [M^−1s^−1]	0.843 ± 0.17 ·10^6 [M^−1]	2.92 ± 0.029 ·10^4 [M^−1]	-15.33	63.99	–	19.07	1.00 ± 0.011 ·10^13 [M^−1s^−1]
Cc1ccc2ccc3ccc(C)nc3c2n1.Cc1ccc2ccc3ccc(C)nc3c2n1.F[P-](F)(F)(F)(F)F.[Cl-].[Cu+2] [Complex 2, [Cu(Cl)(dmphen)2][PF6]]	-38.15	–	1.35 ± 0.050	4.38 ± 0.24 ·10^6 [M^−1]	4.03 ± 0.050 ·10^4 [M^−1]	-38.45	–	1.31 ± 0.066	2.27 ± 0.024 ·10^13 [M^−1s^−1]	3.04 ± 0.32 ·10^6 [M^−1]	5.69 ± 0.024 ·10^4 [M^−1]	-28.24	33.02	–	18.00	1.61 ± 0.050 ·10^13 [M^−1s^−1]
